The kinase profiling compilation of Christmann-Franck et al. (2016)

Key:
Assay in all cases: KINOMEscan competition binding
Details in all cases: compound 10.0 µM
AKT3 (human) = AKT3 (human) (UniProt Q9Y243)
AXL (human) = AXL (human) (UniProt P30530)
BRSK2 (human) = BRSK2 (human) (UniProt Q8IWQ3)
BTK (human) = BTK (human) (UniProt Q06187)
CAMKK2 (human) = CAMKK2 (human) (UniProt Q96RR4)
CDC42BPA (human) = CDC42BPA (human) (UniProt Q5VT25)
CDK2 (human) = CDK2 (human) (UniProt P24941)
CDK5 (human) = CDK5 (human) (UniProt Q00535)
CDK7 (human) = CDK7 (human) (UniProt P50613)
Chain of CDK7 (human) (P50613 whole entry, looked up): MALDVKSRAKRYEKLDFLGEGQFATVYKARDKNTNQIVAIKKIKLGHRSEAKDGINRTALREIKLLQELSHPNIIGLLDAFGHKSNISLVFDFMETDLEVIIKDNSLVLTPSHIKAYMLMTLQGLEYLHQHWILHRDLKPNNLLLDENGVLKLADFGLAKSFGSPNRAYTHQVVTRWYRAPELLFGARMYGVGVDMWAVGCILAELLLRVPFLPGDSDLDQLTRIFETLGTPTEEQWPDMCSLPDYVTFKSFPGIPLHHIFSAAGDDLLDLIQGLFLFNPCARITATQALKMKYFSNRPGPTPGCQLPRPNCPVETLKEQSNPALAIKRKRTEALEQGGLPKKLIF

DDR1 (human) = DDR1 (human) (UniProt Q08345)
Chain of DDR1 (human) (Q08345 whole entry, looked up): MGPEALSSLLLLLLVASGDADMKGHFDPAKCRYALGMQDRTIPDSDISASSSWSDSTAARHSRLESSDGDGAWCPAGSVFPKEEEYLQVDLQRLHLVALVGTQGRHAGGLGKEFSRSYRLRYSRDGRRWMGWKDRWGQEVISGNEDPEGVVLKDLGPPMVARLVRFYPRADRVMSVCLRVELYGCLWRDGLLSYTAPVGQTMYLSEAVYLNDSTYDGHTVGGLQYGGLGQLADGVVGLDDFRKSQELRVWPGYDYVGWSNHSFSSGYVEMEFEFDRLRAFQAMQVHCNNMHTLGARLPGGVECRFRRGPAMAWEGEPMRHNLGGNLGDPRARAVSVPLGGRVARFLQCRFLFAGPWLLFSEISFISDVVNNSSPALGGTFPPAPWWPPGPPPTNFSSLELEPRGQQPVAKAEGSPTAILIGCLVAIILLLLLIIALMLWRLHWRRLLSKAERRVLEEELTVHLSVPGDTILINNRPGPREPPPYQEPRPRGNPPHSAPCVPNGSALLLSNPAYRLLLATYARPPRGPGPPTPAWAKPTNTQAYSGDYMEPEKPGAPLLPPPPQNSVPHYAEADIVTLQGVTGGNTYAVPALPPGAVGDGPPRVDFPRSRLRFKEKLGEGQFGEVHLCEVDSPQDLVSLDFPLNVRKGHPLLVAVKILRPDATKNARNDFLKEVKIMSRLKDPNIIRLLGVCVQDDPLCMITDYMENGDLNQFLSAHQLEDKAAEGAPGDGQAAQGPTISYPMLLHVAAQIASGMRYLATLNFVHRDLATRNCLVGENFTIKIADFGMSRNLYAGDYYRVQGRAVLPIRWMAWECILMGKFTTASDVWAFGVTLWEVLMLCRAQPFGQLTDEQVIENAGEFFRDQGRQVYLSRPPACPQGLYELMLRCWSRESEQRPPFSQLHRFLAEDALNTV

DYRK2 (human) = DYRK2 (human) (UniProt Q92630)
EPHA1 (human) = EPHA1 (human) (UniProt P21709)
EPHB4 (human) = EPHB4 (human) (UniProt P54760)
ERN1 (human) = ERN1 (human) (UniProt O75460)
FLT3 (human) = FLT3 (human) (UniProt P36888)
[1] = test system: FLT3 (human), P36888 [D835H]
GRK4 (human) = GRK4 (human) (UniProt P32298)
Chain of GRK4 (human) (P32298 whole entry, looked up): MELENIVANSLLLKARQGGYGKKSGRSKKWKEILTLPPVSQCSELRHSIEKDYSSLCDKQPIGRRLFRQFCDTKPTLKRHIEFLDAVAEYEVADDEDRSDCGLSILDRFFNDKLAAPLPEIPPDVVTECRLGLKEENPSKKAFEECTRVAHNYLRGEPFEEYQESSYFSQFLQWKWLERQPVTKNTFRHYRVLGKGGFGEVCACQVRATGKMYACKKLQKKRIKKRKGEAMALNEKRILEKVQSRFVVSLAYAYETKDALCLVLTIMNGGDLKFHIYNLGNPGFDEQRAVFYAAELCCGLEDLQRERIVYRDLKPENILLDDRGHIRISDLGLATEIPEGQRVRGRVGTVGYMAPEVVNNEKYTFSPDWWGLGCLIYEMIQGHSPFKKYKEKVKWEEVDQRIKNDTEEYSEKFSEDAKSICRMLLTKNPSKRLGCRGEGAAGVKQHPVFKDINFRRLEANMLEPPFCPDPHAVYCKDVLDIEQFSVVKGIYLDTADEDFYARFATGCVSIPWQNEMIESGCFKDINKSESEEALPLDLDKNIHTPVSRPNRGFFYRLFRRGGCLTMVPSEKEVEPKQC

IKBKE (human) = IKBKE (human) (UniProt Q14164)
ITK (human) = ITK (human) (UniProt Q08881)
LCK (human) = LCK (human) (UniProt P06239)
LIMK1 (human) = LIMK1 (human) (UniProt P53667)
MAP3K7 (human) = MAP3K7 (human) (UniProt O43318)
MAPK3 (human) = MAPK3 (human) (UniProt P27361)
MAPK4 (human) = MAPK4 (human) (UniProt P31152)
MAPK8 (human) = MAPK8 (human) (UniProt P45983)
MARK4 (human) = MARK4 (human) (UniProt Q96L34)
MELK (human) = MELK (human) (UniProt Q14680)
Chain of MELK (human) (Q14680 whole entry, looked up): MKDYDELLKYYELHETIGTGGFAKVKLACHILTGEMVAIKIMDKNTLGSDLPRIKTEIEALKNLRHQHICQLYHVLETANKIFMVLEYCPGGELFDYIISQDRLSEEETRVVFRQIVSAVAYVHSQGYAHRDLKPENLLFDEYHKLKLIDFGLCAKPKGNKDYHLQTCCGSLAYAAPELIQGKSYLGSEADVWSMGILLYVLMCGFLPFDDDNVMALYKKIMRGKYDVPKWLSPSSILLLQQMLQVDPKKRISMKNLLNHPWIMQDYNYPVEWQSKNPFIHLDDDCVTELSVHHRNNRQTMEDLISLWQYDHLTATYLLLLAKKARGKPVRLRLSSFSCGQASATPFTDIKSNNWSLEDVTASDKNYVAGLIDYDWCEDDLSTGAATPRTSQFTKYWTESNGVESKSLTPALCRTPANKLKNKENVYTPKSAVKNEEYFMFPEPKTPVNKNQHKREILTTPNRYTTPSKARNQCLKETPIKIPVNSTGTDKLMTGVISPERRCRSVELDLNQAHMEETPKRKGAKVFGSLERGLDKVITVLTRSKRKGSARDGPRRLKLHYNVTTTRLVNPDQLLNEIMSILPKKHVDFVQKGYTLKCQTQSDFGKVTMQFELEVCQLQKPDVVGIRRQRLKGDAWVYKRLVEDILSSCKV

NEK11 (human) = NEK11 (human) (UniProt Q8NG66)
NEK4 (human) = NEK4 (human) (UniProt P51957)
NIM1 (human) = NIM1 (human) (UniProt Q8IY84)
Chain of NIM1 (human) (Q8IY84 whole entry, looked up): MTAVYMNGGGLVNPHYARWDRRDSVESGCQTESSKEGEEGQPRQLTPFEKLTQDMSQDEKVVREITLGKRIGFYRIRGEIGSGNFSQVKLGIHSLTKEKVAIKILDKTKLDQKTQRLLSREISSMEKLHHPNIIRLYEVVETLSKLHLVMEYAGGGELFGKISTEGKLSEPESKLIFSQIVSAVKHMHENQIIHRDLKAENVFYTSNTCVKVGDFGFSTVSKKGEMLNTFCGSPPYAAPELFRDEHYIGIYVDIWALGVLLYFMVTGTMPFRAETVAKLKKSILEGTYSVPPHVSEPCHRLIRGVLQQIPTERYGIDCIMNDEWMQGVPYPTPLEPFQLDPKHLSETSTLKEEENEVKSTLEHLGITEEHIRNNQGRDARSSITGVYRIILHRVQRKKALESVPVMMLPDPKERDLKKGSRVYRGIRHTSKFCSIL

PIK3CB (human) = PIK3CB (human) (UniProt P42338)
PIM1 (human) = PIM1 (human) (UniProt P11309)
PLK4 (human) = PLK4 (human) (UniProt O00444)
PRKG1 (human) = PRKG1 (human) (UniProt Q13976)
Chain of PRKG1 (human) (Q13976 whole entry, looked up): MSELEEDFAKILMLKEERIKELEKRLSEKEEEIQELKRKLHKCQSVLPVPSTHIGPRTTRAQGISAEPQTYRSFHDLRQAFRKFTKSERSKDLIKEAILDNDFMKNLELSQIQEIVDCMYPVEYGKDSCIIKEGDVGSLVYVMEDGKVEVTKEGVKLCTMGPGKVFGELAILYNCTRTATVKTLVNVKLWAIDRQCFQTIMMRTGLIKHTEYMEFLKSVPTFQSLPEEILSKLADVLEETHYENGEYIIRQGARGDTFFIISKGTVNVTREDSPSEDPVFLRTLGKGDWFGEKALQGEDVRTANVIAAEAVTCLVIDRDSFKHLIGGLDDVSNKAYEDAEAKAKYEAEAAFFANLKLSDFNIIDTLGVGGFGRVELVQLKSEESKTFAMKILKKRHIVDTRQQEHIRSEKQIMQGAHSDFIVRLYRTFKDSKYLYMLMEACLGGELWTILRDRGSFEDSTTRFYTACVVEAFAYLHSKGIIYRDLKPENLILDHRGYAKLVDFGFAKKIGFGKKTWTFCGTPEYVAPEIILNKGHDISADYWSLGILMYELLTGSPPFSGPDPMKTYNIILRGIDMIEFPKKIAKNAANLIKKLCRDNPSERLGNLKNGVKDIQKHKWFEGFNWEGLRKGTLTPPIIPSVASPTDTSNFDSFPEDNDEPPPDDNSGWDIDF

[2] = test system: RET (human), P07949 [M918T]
RIPK4 (human) = RIPK4 (human) (UniProt P57078)
Chain of RIPK4 (human) (P57078 whole entry, looked up): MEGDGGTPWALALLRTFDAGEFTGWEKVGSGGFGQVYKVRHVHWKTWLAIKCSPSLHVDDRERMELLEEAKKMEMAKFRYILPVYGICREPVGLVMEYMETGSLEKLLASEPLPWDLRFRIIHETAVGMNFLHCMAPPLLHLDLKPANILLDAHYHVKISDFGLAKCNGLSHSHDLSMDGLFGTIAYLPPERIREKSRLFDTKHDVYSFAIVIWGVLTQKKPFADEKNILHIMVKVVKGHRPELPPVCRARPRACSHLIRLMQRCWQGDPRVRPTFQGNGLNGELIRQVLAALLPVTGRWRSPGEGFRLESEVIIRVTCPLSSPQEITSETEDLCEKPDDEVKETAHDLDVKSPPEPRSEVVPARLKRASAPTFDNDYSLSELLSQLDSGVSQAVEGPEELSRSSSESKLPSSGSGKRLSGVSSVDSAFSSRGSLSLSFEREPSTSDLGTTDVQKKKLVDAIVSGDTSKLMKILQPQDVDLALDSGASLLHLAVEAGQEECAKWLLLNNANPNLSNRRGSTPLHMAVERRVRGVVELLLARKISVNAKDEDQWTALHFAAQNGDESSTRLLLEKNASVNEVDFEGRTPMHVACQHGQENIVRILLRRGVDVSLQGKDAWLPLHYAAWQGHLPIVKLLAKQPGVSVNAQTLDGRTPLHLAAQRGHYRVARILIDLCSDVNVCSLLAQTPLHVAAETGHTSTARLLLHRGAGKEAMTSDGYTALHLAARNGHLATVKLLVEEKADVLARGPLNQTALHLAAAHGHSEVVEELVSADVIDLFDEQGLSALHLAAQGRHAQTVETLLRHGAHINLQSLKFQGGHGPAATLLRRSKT

RPS6KA4 KD1 (human) = RPS6KA4 KD1 (human) (UniProt O75676)
TNK2 (human) = TNK2 (human) (UniProt Q07912)
TTK (human) = TTK (human) (UniProt P33981)
WEE1 (human) = WEE1 (human) (UniProt P30291)
ZAP70 (human) = ZAP70 (human) (UniProt P43403)
Chain of ZAP70 (human) (P43403 whole entry, looked up): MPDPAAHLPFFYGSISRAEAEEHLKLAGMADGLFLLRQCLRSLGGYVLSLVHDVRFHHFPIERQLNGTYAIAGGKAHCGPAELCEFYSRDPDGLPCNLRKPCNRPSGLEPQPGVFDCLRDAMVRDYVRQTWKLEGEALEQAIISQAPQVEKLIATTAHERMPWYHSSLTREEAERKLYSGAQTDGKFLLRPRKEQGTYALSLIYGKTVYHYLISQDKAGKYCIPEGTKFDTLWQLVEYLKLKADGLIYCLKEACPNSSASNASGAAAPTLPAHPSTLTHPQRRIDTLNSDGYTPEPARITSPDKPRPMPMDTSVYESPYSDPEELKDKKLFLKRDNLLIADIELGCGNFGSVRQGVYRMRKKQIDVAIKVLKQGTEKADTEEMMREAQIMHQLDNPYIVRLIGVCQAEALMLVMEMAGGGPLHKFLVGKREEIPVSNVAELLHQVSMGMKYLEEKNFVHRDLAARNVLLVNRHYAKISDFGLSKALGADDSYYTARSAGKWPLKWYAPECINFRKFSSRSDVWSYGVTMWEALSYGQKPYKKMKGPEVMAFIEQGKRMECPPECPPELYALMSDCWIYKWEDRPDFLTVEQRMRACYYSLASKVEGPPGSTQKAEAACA

NC(=O)Nc1cc(-c2cccc(F)c2)sc1C(=O)N[C@@H]1CCCNC1
kinase still bound, per cent of control (AKT3 (human)): 100%
kinase still bound, per cent of control (AXL (human)): 0%
kinase still bound, per cent of control (BRSK2 (human)): 2.8%
kinase still bound, per cent of control (BTK (human)): 0.2%
kinase still bound, per cent of control (CAMKK2 (human)): 2.9%
kinase still bound, per cent of control (CDC42BPA (human)): 62%
kinase still bound, per cent of control (CDK2 (human)): 93%
kinase still bound, per cent of control (CDK5 (human)): 100%
kinase still bound, per cent of control (CDK7 (human)): 4.9%
kinase still bound, per cent of control (DDR1 (human)): 10%
kinase still bound, per cent of control (DYRK2 (human)): 26%
kinase still bound, per cent of control (EPHA1 (human)): 1.4%
kinase still bound, per cent of control (EPHB4 (human)): 6.4%
kinase still bound, per cent of control (ERN1 (human)): 25%
kinase still bound, per cent of control (FLT3 (human)): 0%
kinase still bound, per cent of control [1]: 0%
kinase still bound, per cent of control (GRK4 (human)): 0%
kinase still bound, per cent of control (IKBKE (human)): 3.6%
kinase still bound, per cent of control (ITK (human)): 0.55%
kinase still bound, per cent of control (LCK (human)): 0%
kinase still bound, per cent of control (LIMK1 (human)): 62%
kinase still bound, per cent of control (MAP3K7 (human)): 0%
kinase still bound, per cent of control (MAPK3 (human)): 91%
kinase still bound, per cent of control (MAPK4 (human)): 61%
kinase still bound, per cent of control (MAPK8 (human)): 29%
kinase still bound, per cent of control (MARK4 (human)): 2.2%
kinase still bound, per cent of control (MELK (human)): 1.4%
kinase still bound, per cent of control (NEK11 (human)): 100%
kinase still bound, per cent of control (NEK4 (human)): 22%
kinase still bound, per cent of control (NIM1 (human)): 13%
kinase still bound, per cent of control (PIK3CB (human)): 68%
kinase still bound, per cent of control (PIM1 (human)): 48%
kinase still bound, per cent of control (PLK4 (human)): 0%
kinase still bound, per cent of control (PRKG1 (human)): 0.8%
kinase still bound, per cent of control [2]: 0%
kinase still bound, per cent of control (RIPK4 (human)): 0%
kinase still bound, per cent of control (RPS6KA4 KD1 (human)): 0.2%
kinase still bound, per cent of control (TNK2 (human)): 0.85%
kinase still bound, per cent of control (TTK (human)): 12%
kinase still bound, per cent of control (WEE1 (human)): 50%
kinase still bound, per cent of control (ZAP70 (human)): 0%
